Assay: saturation vapor pressure
Type: physicochemical

Structure (SMILES) | Saturation vapor pressure
CCCOC(C)COC(C)CO (centres unmarked) [DPGPE, dipropylene glycol-n-propyl ether] | 0.03 hPa
COCC(C)O (centres unmarked) [PGME, propylene glycol methyl ether] | 8.71 hPa
COCC(C)OC(C)=O (centres unmarked) [PGMEA, propylene glycol methyl ether acetate] | 5 hPa

Next, values leading:

Saturation vapor pressure | Structure (SMILES)
9.4 hPa | CCOCC(C)O (centres unmarked) [PGEE, propylene glycol ethyl ether]
2.21 hPa | CCCOCC(C)O (centres unmarked) [PGPE, propylene glycol-n-propyl ether]

From patent publication US7357832B2, “Water base pigment ink for ink-jet recording, ink cartridge accommodating the same, and ink-jet recording method” (Brother Kogyo Kabushiki Kaisha, priority 2004, dated 2008)
